Reference: patent publication EP1357114A1, “Substituted pyrimidin-2,4(1H,3H)-diones as inhibitors of Matrix Metalloproteinases (MMP)” (IBFB GmbH Privates Institut für biomedizinische Forschung …, priority 2002, dated 2003)

Experiments:
Test in all cases: Quantitative fluorescence assay for matrix metalloproteinases (cleavage of Mca-Pro-Leu-Gly-Leu-Dpa-Ala-Arg-NH2)
Assay type in all cases: biochemical
[1] = target: T1, katalytische Domäne der MMP-3 (Homo sapiens, UniProt P08254); settings: for Ki: Dixon plot
T1 construct: Die katalytische Domäne der humanen MMP-3 wurde nach den Angaben in folgender Publikation kloniert; made in house
T1 sequence (P08254 100-272 limits assumed): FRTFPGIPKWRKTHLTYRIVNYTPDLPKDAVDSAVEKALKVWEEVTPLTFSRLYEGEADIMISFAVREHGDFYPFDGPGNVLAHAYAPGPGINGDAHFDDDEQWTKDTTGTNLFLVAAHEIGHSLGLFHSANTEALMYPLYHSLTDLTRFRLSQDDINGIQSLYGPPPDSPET
Method: Die katalytische Domäne der humanen MMP-3 wurde nach den Angaben in folgender Publikation kloniert: Ye Q-Z, Johnson LL, Hupe DJ, Baragi V: Purification and Characterization of the Human Stromelysin Catalytic Domain Expressed in Escherichia coli. Biochemistry (1992), 31, 11231-11235). Nach Rückfaltung des Enzyms und Gelfiltration an Sephadex G-50 (Laufpuffer 100 mM Tris-HCI pH 7,5, 10 mM CaCl2, 100 mM NaCI, 0,05% Brij 35) erhielten wir ein zu 95% reines Präparat.
(§1) Durch enzymatische Spaltung des synthetischen Substrates Mca-Pro-Leu-Gly-Leu-Dpa-Ala-Arg-NH2 durch die jeweilige Kollagenase, wird die fluoreszente Gruppe Mca ((7-Methoxycoumarin-4-yl)acetyl) vom internen Quencher Dpa ((N-3-(2,4-dinitrophenyl)-L-2,3-diaminopropienyl) getrennt. Dabei erfolgt eine starke Zunahme der Fluoreszenz im Messansatz, die am Fluorimeter quantifiziert werden kann (λex 328 nm, λem 393 nm) und innerhalb der ersten Minuten linear verläuft. Eine gewisse Spezifität des Tests für Matrix-Metalloproteinasen ergibt sich einerseits aus der Aminosäuresequenz -Pro-Leu-Gly-Leu- im Substrat und andererseits durch die gewählten Inkubationsbedingungen. Matrix-Metalloproteinasen spalten das Substrat an der Bindung Gly-Leu. Gemessen wird die proteolytische Restaktivität vorinkubierter Ansätze von Enzym und Inhibitor, wobei die Substrat- und Enzymkonzentration konstant gehalten und die Inhibitorkonzentration variiert wurde. Es wurden für jeden getesteten Inhibitor drei Messreihen mit unterschiedlicher Substratkonzentration aufgenommen. Aus der zeitabhängigen Fluoreszenzzunahme wird die Enzymaktivität in Fluoreszenzeinheiten pro min berechnet. Die Bestimmung der Ki-Werte erfolgte graphisch nach der Methode von DIXON (1953) durch Auftragung der reziproken Reaktionsgeschwindigkeit 1/v (y-Achse) gegen Inhibitorkonzentration (x-Achse).
(§2) 1984 µl Messpuffer (100mM Tris-HCI pH 7,5, 100 mM NaCI, 10 mM CaCl2, 0,05% Brij 35 bzw. 50 mM MES-NaOH, pH 6.0, 10 mM CaCl2, 100 mM NaCI, 0.05% Brij 35 im Fall der KaDo MMP-3) 2 µl Inhibitor, gelöst in DMSO, bzw. DMSO allein (nichtinhibierender Ansatz) 4 µl Enzym • 5 min. Vorinkubation des Enzym-Inhibitor-Gemischs bei Raumtemperatur unter Rühren • Start der Reaktion mit 10 µl Substrat gelöst in DMSO • Aufzeichnung der zeitabhängigen Fluoreszenzzunahme über 2 - 10 min.

[2] = target: T2, katalytische Domäne der MMP-8 (Homo sapiens, UniProt P22894)
T2 construct: dass wir statt des Gesamtenzyms nur dessen enzymatisch aktive katalytische Domäne in E. coli klonierten; made in house; host or cells: E. coli
T2 sequence (P22894 100-262 limits assumed): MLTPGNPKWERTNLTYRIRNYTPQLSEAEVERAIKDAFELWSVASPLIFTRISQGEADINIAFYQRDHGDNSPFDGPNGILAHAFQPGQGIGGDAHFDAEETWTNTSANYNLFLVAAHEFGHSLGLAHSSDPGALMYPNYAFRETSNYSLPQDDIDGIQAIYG
Excerpt: Die Nutzung der katalytischen Domäne der MMP-8 als weiteres Testenzym wurde deshalb gewählt, weil es eine hohe Stabilität besitzt und darüber hinaus als aktives Enzym vorliegt. Es muß deshalb nicht aktiviert werden, was eine der häufigsten Fehlerursachen darstellt, da die zur Aktivierung genutzten Quecksilberverbindungen häufig mit dem Testsystem bzw. dem Enzym interferieren und dadurch die Messergebnisse verfälschen werden. Die Klonierungsstrategie gestalteten wir so, dass wir statt des Gesamtenzyms nur dessen enzymatisch aktive katalytische Domäne in E. coli klonierten. Mit der konstruierten katalytischen Domäne der MMP-8 erzielten wir ein stabiles, enzymatisch aktives und hochreines Enzym, welches für die Routineuntersuchungen der inhibitorischen Aktivität der synthetisierten Inhibitoren sehr gut geeignet war und die Messergebnisse der einzelnen Messserien miteinander vergleichbar machte. Die Klonierung und Expression der katalytischen Domäne der MMP-8 wurde entsprechend den Angaben von SCHNIERER et al. (Schnierer S, Kleine T, Gote T, Hillemann A, Knäuper V, Tschesche H: The recombinant catalytic domain of human neutrophil collagenase lacks type I collagen substrate specificity. Biochem Biophys Res Comm (1993) vol. 191 No. 2, 319-326) durchgeführt.
as §1, §2

[3] = target: T3, katalytische Domäne der MT1-MMP (Homo sapiens, UniProt P50281)
T3 construct: Die katalytische Domäne der humanen MT1-MMP wurde nach den Angaben in folgender Publikation kloniert; made in house
Method: Die katalytische Domäne der humanen MT1-MMP wurde nach den Angaben in folgender Publikation kloniert: Lichte A, Kolkenbrock H, Tschesche H: The recombinant catalytic domain of membrane-type matrix metalloproteinase-1 (MT1-MMP) induces activation of progelatinase A and progelatinase A complexed with TIMP-2. FEBS letters (1996), 397, 277-282.
Nach Rückfaltung des Enyzms, Autoprozessierung zur aktiven Form und Gelfiltration an Sephadex G-50 (Laufpuffer 20 mM Tris-HCI pH 7,5, 5 mM CaCl2, 100 mM NaCI, 0,1 mM ZnCl2, 0,02% (w/v) Natriumazid) erhielten wir ein zu 95% reines Präparat.
as §1, §2

[4] = result in words, concentration not given

`O=c1[nH]c2sc3c(c2c(=O)n1CC(S)CS)CCCC3` (racemic) [Beispiel 10, (R,S)-3-(2,3-Dimercaptopropyl)-5,6,7,8-tetrahydro[1]benzothieno[2,3-d]pyrimidin-2,4(1H,3H)-dion] was tested. Which “MMP-3 Hemmung” value ([1]; bei 10 µM) did it give?
The value was 55% Hemmung bei 10 µM.

What about the “MMP-8 Hemmung” value ([2]; bei 10 µM) of the same compound?
The value was 39% Hemmung bei 10 µM.

And the “MT1-MMP Hemmung” value ([3]; bei 10 µM)?
Its value is 42% Hemmung bei 10 µM.

`O=c1[nH]c2cc(Cl)ccc2c(=O)n1CC(S)CS` (racemic) [Beispiel 3, (R,S)-7-Chlor-3-(2,3-dimercaptopropyl)chinazolin-2,4-(1H,3H)dion] was tested. Which “MMP-3 Hemmung” value ([1]; bei 10 µM) did it give?
The value was 97% Hemmung bei 10 µM.

What about the “MMP-8 Hemmung” value ([2]; bei 10 µM) of the same compound?
Its value is 87% Hemmung bei 10 µM.

What about the “MT1-MMP Hemmung” value ([3]; bei 10 µM) of the same compound?
The value was 73% Hemmung bei 10 µM.

For `O=c1[nH]c2ccccc2c(=O)n1CC(S)CS` (racemic) [Beispiel 1, (R,S)-3-(2,3-Dimercaptopropyl)chinazolin-2,4-(1H,3H)dion], which “MMP-3 Hemmung” value ([1]; bei 10 µM) is on record?
The value was 70% Hemmung bei 10 µM.

And the “MMP-8 Hemmung” value ([2]; bei 10 µM)?
Its value is 70% Hemmung bei 10 µM.

What about the “MT1-MMP Hemmung” value ([3]; bei 10 µM) of the same compound?
The value was 40% Hemmung bei 10 µM.

How did the Ki [1] turn out when `O=c1[nH]c2ccsc2c(=O)n1CC(S)CS` (racemic) [Beispiel 9, (R,S)-3-(2,3-Dimercaptopropyl)thieno[3,2-d]pyrimidin-2,4(1H,3H)-dion] was run?
The Ki was 250 nM.

And the “MMP-8 Hemmung” value ([2]; bei 2,5 µM)?
Its value is 50% Hemmung bei 2,5 µM.

And the “MT1-MMP Hemmung” value ([3]; bei 3 µM)?
Its value is 50% Hemmung bei 3 µM.

Which results are given for `O=c1[nH]c2sc(-c3ccccc3)cc2c(=O)n1CC(S)CS` (racemic) [Beispiel 11, (R,S)-3-(2,3-Dimercaptopropyl)-6-phenylthieno[2,3-d]pyrimidin-2,4(1H,3H)-dion]?
MMP-3 Hemmung [1, 4]: Keine Hemmung; MMP-8 Hemmung ([2]; bei 1 µM): 30% Hemmung bei 1 µM; MT1-MMP Hemmung [3, 4]: Keine Hemmung

What does the source list for `O=C(NCc1ccccc1)c1ccc2c(=O)n(CC(S)CS)c(=O)[nH]c2c1` (racemic) [Beispiel 8, (R,S)-N-Benzyl-3-(2,3-dimercaptopropyl)-2,4-dioxo-1,2,3,4-tetrahydrochinazolin-7-carboxamide]?
MMP-3 Hemmung ([1]; bei 5 µM): 30% Hemmung bei 5 µM; MMP-8 Hemmung ([2]; bei 5 µM): 30% Hemmung bei 5 µM; MT1-MMP Hemmung ([3]; bei 5 µM): 30% Hemmung bei 5 µM

`O=c1[nH]c2ccc(Cl)cc2c(=O)n1CC(S)CS` (racemic) [Beispiel 4, (R,S)-6-Chlor-3-(2,3-dimercaptopropyl)chinazolin-2,4-(1H,3H)dion] was tested. Which “MMP-3 Hemmung” value ([1]; bei 10 µM) did it give?
Its value is 15% Hemmung bei 10 µM.

And the “MMP-8 Hemmung” value ([2]; bei 10 µM)?
The value was 60% Hemmung bei 10 µM.

And the “MT1-MMP Hemmung” value ([3]; bei 10 µM)?
The value was 60% Hemmung bei 10 µM.

How did the Ki [1] turn out when `COc1cc2[nH]c(=O)n(CC(S)CS)c(=O)c2cc1OC` (racemic) [Beispiel 7, (R,S)-3-(2,3-Dimercaptopropyl)-6,7-dimethoxy-chinazolin-2,4-(1H,3H)dion] was run?
The Ki was 1000 nM.

And the “MMP-8 Hemmung” value ([2]; bei 1 µM)?
Its value is 20% Hemmung bei 1 µM.

And the “MT1-MMP Hemmung” value [3, 4]?
Its value is “keine Hemmung”.

`Cc1cccc2[nH]c(=O)n(CC(S)CS)c(=O)c12` (racemic) [Beispiel 5, (R,S)-3-(2,3-Dimercaptopropyl)-5-methyl-chinazolin-2,4-(1H,3H)dion] was tested. Which “MMP-3 Hemmung” value ([1]; bei 10 µM) did it give?
The value was 90% Hemmung bei 10 µM.

And the “MMP-8 Hemmung” value ([2]; bei 10 µM)?
The value was 70% Hemmung bei 10 µM.

What about the “MT1-MMP Hemmung” value ([3]; bei 10 µM) of the same compound?
The value was 80% Hemmung bei 10 µM.
